In patent US10167262B2, “Herbicidal substituted 3-arylpyrazoles” (FMC CORPORATION, priority 2014, dated 2019):

How the values were obtained:
Test in all cases: Test E pre-/postemergence greenhouse test, plant response rating 0-100
Assay type in all cases: in vivo
[1] = tested on: morningglory (Ipomoea coccinea); conditions: Preemergence, scale 0 to 100
[2] = tested on: johnsongrass (Sorghum halepense); conditions: Preemergence, scale 0 to 100
[3] = tested on: yellow nutsedge (Cyperus esculentus); conditions: Preemergence, scale 0 to 100
[4] = tested on: smartweed (ladysthumb smartweed, Polygonum persicaria); conditions: Preemergence, scale 0 to 100
[5] = tested on: giant foxtail (Setaria faberii); conditions: Preemergence, scale 0 to 100
[6] = tested on: large (Lg) crabgrass (Digitaria sanguinalis); conditions: Preemergence, scale 0 to 100
[7] = tested on: field bindweed (Convolvulus arvensis); conditions: scale 0 to 100; for Plant response rating, Field Bindweed: Postemergence; for Field Bindweed plant response rating: Preemergence
How it was run: (§1)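 Each species was tested both preemergence, with chemicals sprayed onto freshly planted silt loam, and postemergence, on plants 2 to 18 cm tall in a peat-based medium; the vehicle was a non-phytotoxic solvent mixture with surfactant. After 14 to 21 days in the greenhouse, growth was visually compared with controls and scored 0–100.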

[8] = tested on: smartweed (ladysthumb smartweed, Polygonum persicaria); conditions: Postemergence, scale 0 to 100
[9] = tested on: fall panicum (Panicum dichotomiflorum); conditions: scale 0 to 100; for Plant response rating, Panicum, Fall: Postemergence; for Panicum, Fall plant response rating: Preemergence
How it was run: as §1

[10] = tested on: surinam grass (Brachiaria decumbens); conditions: Preemergence, scale 0 to 100
How it was run: as §1

[11] = tested on: ragweed (common ragweed, Ambrosia elatior); conditions: Preemergence, scale 0 to 100
How it was run: as §1

kochia (Kochia scoparia) = conditions: Preemergence, scale 0 to 100
How it was run: as §1

[12] = tested on: velvetleaf (Abutilon theophrasti); conditions: Preemergence, scale 0 to 100
How it was run: as §1

[13] = tested on: goosegrass (Eleusine indica); conditions: Preemergence, scale 0 to 100
[14] = tested on: green foxtail (Setaria viridis); conditions: Preemergence, scale 0 to 100

O=C(c1ccccc1)c1cn(S(=O)(=O)C(F)(F)F)nc1-c1cc(Cl)cc(Cl)c1 [Compound 2]
Morningglory plant response rating ([1]; 31 g ai/ha): 0
Morningglory plant response rating ([1]; 62 g ai/ha): 0
Morningglory plant response rating ([1]; 125 g ai/ha): 0
Morningglory plant response rating ([1]; 250 g ai/ha): 0
Morningglory plant response rating ([1]; 500 g ai/ha): 0
Johnsongrass plant response rating ([2]; 31 g ai/ha): 0
Johnsongrass plant response rating ([2]; 62 g ai/ha): 0
Johnsongrass plant response rating ([2]; 125 g ai/ha): 0
Johnsongrass plant response rating ([2]; 250 g ai/ha): 0
Johnsongrass plant response rating ([2]; 500 g ai/ha): 0
Nutsedge, Yellow plant response rating ([3]; 31 g ai/ha): 0
Nutsedge, Yellow plant response rating ([3]; 125 g ai/ha): 50
Nutsedge, Yellow plant response rating ([3]; 250 g ai/ha): 40
Nutsedge, Yellow plant response rating ([3]; 500 g ai/ha): 35
Smartweed plant response rating ([4]; 31 g ai/ha): 0
Smartweed plant response rating ([4]; 125 g ai/ha): 0
Smartweed plant response rating ([4]; 250 g ai/ha): 0
Foxtail, Giant plant response rating ([5]; 31 g ai/ha): 0
Foxtail, Giant plant response rating ([5]; 62 g ai/ha): 0
Foxtail, Giant plant response rating ([5]; 125 g ai/ha): 0
Foxtail, Giant plant response rating ([5]; 250 g ai/ha): 0
Foxtail, Giant plant response rating ([5]; 500 g ai/ha): 0
Crabgrass, Large plant response rating ([6]; 31 g ai/ha): 0
Crabgrass, Large plant response rating ([6]; 62 g ai/ha): 0
Crabgrass, Large plant response rating ([6]; 125 g ai/ha): 0
Crabgrass, Large plant response rating ([6]; 250 g ai/ha): 0
Crabgrass, Large plant response rating ([6]; 500 g ai/ha): 0
Plant response rating, Field Bindweed ([7]; 31 g ai/ha): 0
Plant response rating, Field Bindweed ([7]; 62 g ai/ha): 0
Plant response rating, Field Bindweed ([7]; 125 g ai/ha): 0
Plant response rating, Field Bindweed ([7]; 250 g ai/ha): 0
Plant response rating, Field Bindweed ([7]; 500 g ai/ha): 0
Field Bindweed plant response rating ([7]; 31 g ai/ha): 0
Field Bindweed plant response rating ([7]; 62 g ai/ha): 0
Field Bindweed plant response rating ([7]; 125 g ai/ha): 0
Field Bindweed plant response rating ([7]; 250 g ai/ha): 0
Field Bindweed plant response rating ([7]; 500 g ai/ha): 0
Plant response rating, Smartweed ([8]; 31 g ai/ha): 0
Plant response rating, Smartweed ([8]; 62 g ai/ha): 65
Plant response rating, Smartweed ([8]; 125 g ai/ha): 75
Plant response rating, Smartweed ([8]; 250 g ai/ha): 95
Plant response rating, Panicum, Fall ([9]; 31 g ai/ha): 0
Plant response rating, Panicum, Fall ([9]; 62 g ai/ha): 0
Plant response rating, Panicum, Fall ([9]; 125 g ai/ha): 0
Plant response rating, Panicum, Fall ([9]; 250 g ai/ha): 25
Plant response rating, Panicum, Fall ([9]; 500 g ai/ha): 40
Panicum, Fall plant response rating ([9]; 31 g ai/ha): 0
Panicum, Fall plant response rating ([9]; 62 g ai/ha): 0
Panicum, Fall plant response rating ([9]; 125 g ai/ha): 0
Panicum, Fall plant response rating ([9]; 250 g ai/ha): 0
Panicum, Fall plant response rating ([9]; 500 g ai/ha): 0
Surinam Grass plant response rating ([10]; 31 g ai/ha): 0
Surinam Grass plant response rating ([10]; 62 g ai/ha): 0
Surinam Grass plant response rating ([10]; 125 g ai/ha): 0
Surinam Grass plant response rating ([10]; 250 g ai/ha): 0
Surinam Grass plant response rating ([10]; 500 g ai/ha): 0
Ragweed plant response rating ([11]; 31 g ai/ha): 0
Ragweed plant response rating ([11]; 125 g ai/ha): 0
Ragweed plant response rating ([11]; 250 g ai/ha): 100
Ragweed plant response rating ([11]; 500 g ai/ha): 100
Kochia plant response rating (kochia (Kochia scoparia); 31 g ai/ha): 0
Kochia plant response rating (kochia (Kochia scoparia); 62 g ai/ha): 0
Kochia plant response rating (kochia (Kochia scoparia); 125 g ai/ha): 0
Kochia plant response rating (kochia (Kochia scoparia); 250 g ai/ha): 65
Kochia plant response rating (kochia (Kochia scoparia); 500 g ai/ha): 90
Velvetleaf plant response rating ([12]; 31 g ai/ha): 0
Velvetleaf plant response rating ([12]; 62 g ai/ha): 0
Velvetleaf plant response rating ([12]; 125 g ai/ha): 0
Velvetleaf plant response rating ([12]; 250 g ai/ha): 0
Velvetleaf plant response rating ([12]; 500 g ai/ha): 100
Goosegrass plant response rating ([13]; 31 g ai/ha): 0
Goosegrass plant response rating ([13]; 62 g ai/ha): 0
Goosegrass plant response rating ([13]; 125 g ai/ha): 0
Goosegrass plant response rating ([13]; 250 g ai/ha): 0
Goosegrass plant response rating ([13]; 500 g ai/ha): 0
Foxtail, Green plant response rating ([14]; 31 g ai/ha): 0
Foxtail, Green plant response rating ([14]; 62 g ai/ha): 0
Foxtail, Green plant response rating ([14]; 125 g ai/ha): 0
Foxtail, Green plant response rating ([14]; 250 g ai/ha): 0
Foxtail, Green plant response rating ([14]; 500 g ai/ha): 0
